Laboratory results as given in article PMC13051451, “A Charge-Reversal Point Mutation Completely Depletes Flavin Chromophore from European Robin Cryptochrome 4a Protein” (The Journal of Physical Chemistry Letters, 2026).

Experiments:
[1] = target: T1, European robin Cryptochrome 4a (ErCry4a) (Erithacus rubecula, UniProt A0A2I4SZI9, R356E); test: native electrospray mass spectrometry; UV-vis absorption; assay type: binding; conditions: co-purified FAD, noncovalent; 20 uM protein, 150 mM ammonium acetate, pH 8; no bound FAD detected (non-binder)
T1 construct: anion exchange purified; monomer with minor dimer

[2] = target: T2, European robin Cryptochrome 4a (ErCry4a) (Erithacus rubecula, UniProt A0A2I4SZI9); test: as above; assay type: binding; conditions: co-purified FAD, noncovalent; 20 uM protein, 150 mM ammonium acetate, pH 8
T2 construct: anion exchange purified; monomer with minor dimer
T2 sequence (A0A2I4SZI9 entry or part of it): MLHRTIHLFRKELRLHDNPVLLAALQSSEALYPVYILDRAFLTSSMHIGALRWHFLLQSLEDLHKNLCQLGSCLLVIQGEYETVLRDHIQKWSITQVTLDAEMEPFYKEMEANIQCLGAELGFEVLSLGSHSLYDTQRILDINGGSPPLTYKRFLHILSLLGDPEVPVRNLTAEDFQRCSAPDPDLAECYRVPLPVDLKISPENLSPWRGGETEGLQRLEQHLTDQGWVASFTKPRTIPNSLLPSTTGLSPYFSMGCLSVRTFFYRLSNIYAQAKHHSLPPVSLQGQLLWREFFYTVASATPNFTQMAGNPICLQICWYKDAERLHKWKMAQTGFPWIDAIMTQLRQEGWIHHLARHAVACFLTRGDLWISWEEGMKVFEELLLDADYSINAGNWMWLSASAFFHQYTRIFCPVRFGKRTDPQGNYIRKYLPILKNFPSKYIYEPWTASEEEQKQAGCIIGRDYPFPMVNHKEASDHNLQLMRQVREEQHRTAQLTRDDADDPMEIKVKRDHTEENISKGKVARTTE

T1 sequence (A0A2I4SZI9 entry or part of it R356E): as the sequence (A0A2I4SZI9 entry or part of it) above, with R356E counted along it

% of protein with FAD bound [2]: 94%
SMILES: Cc1cc2nc3c(=O)[nH]c(=O)nc-3n(C[C@H](O)[C@H](O)[C@H](O)COP(=O)(O)OP(=O)(O)OC[C@H]3O[C@@H](n4cnc5c(N)ncnc54)[C@H](O)[C@@H]3O)c2cc1C [flavin adenine dinucleotide]
native electrospray mass spectrometry; UV-vis absorption [1]: The R356E mutant is detected exclusively without FAD
